Source: ChEMBL document CHEMBL1134913, “Novel substituted 4-aminomethylpiperidines as potent and selective human beta3-agonists. Part 1: aryloxypropanolaminomethylpiperidines” (Bioorg Med Chem Lett, 2002)

Columns and labels:
[1] = target: T1, Beta-1 adrenergic receptor (Homo sapiens, UniProt P08588); experiment: In vitro agonist activity measured by increase in cAMP levels in chinese hamster ovary cells (CHO) cells expressing human Beta-1 adrenergic receptor; type: functional, cell-based
Target sequence in this assay (P08588 whole entry): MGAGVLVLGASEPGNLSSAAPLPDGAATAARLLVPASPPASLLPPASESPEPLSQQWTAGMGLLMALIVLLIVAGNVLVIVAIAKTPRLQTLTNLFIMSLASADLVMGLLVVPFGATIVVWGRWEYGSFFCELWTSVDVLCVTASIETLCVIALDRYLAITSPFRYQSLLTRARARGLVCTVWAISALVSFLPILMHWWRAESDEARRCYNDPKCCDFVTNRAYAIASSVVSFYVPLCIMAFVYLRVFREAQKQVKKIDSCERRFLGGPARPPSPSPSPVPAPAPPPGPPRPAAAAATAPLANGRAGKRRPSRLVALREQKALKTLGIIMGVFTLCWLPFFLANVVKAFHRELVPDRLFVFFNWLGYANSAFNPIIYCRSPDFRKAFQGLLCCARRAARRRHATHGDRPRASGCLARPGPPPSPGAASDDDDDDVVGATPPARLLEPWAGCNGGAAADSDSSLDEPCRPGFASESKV

[2] = target: T2, Beta-3 adrenergic receptor (Homo sapiens, UniProt P13945); experiment: Intrinsic activity (IA) for Beta-3 adrenergic receptor agonism was determined as the maximal response with respect to the maximal response of isoproterenol at […].
Target sequence in this assay (P13945 whole entry, looked up): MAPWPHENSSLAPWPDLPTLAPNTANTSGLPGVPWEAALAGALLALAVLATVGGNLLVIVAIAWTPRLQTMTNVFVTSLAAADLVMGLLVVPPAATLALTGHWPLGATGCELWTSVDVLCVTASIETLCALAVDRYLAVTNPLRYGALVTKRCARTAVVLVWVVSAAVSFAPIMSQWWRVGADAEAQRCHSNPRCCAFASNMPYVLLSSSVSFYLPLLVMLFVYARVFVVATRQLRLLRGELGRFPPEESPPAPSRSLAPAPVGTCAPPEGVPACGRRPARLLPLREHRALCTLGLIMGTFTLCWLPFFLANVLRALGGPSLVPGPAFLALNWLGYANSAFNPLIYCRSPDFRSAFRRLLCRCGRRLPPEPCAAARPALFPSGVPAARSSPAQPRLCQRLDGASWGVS

[3] = target: T2, Beta-3 adrenergic receptor; experiment: In vitro agonist activity by increase in cAMP levels in chinese hamster ovary cells (CHO) cells stimulated by human Beta-3 adrenergic receptor was determined; IA is inactive; type: functional, cell-based
Target sequence in this assay (P13945 whole entry): as the sequence (P13945 whole entry, looked up) above

[4] = target: T3, Beta-2 adrenergic receptor (Homo sapiens, UniProt P07550); experiment: In vitro agonist activity measured by increase in cAMP levels in chinese hamster ovary cells (CHO) cells expressing human Beta-2 adrenergic receptor; type: functional, cell-based
[5] = target: T3, Beta-2 adrenergic receptor; experiment: (§1) Compound was tested for the antagonistic activity against Beta-2 adrenergic receptor
[6] = target: T1, Beta-1 adrenergic receptor; experiment: Compound was tested for the antagonistic activity against Beta-1 adrenergic receptor; type: functional
Target sequence in this assay (P08588 whole entry): as the sequence (P08588 whole entry) above

Mus musculus = experiment: In vivo activity of compound with an increase in thermogenesis in the Beta 3 transgenic mice at an ip dose of 10 mg/kg was determined; type: functional; conditions: route intraperitoneal
[7] = target: T3, Beta-2 adrenergic receptor; experiment: as §1; type: functional
[8] = target: T1, Beta-1 adrenergic receptor; experiment: Intrinsic activity (IA) for Beta-1 adrenoceptor agonism was determined as the maximal response with respect to the maximal response of isoproterenol at […].; type: functional
Target sequence in this assay (P08588 whole entry, looked up): as the sequence (P08588 whole entry) above

[9] = target: T3, Beta-2 adrenergic receptor; experiment: In vitro agonist activity by increase in cAMP levels in chinese hamster ovary cells (CHO) cells stimulated by human Beta-2 Adrenoceptor; type: functional, cell-based
[10] = target: T2, Beta-3 adrenergic receptor; experiment: Intrinsic activity (IA) for Beta-3 adrenoceptor agonism was determined as the maximal response with respect to the maximal response of isoproterenol at […].; type: functional
Target sequence in this assay (P13945 whole entry, looked up): as the sequence (P13945 whole entry, looked up) above

[11] = target: T1, Beta-1 adrenergic receptor; experiment: In vitro agonist activity by increase in cAMP levels in chinese hamster ovary cells (CHO) cells stimulated by human Beta-1 Adrenoceptor was determined; type: functional, cell-based
Target sequence in this assay (P08588 whole entry): as the sequence (P08588 whole entry) above

[12] = target: T2, Beta-3 adrenergic receptor; experiment: In vitro agonist activity by increase in cAMP levels in chinese hamster ovary cells (CHO) cells stimulated by human Beta-3 Adrenoceptor was determined; type: functional, cell-based
Target sequence in this assay (P13945 whole entry): as the sequence (P13945 whole entry, looked up) above

T3 sequence (P07550 whole entry): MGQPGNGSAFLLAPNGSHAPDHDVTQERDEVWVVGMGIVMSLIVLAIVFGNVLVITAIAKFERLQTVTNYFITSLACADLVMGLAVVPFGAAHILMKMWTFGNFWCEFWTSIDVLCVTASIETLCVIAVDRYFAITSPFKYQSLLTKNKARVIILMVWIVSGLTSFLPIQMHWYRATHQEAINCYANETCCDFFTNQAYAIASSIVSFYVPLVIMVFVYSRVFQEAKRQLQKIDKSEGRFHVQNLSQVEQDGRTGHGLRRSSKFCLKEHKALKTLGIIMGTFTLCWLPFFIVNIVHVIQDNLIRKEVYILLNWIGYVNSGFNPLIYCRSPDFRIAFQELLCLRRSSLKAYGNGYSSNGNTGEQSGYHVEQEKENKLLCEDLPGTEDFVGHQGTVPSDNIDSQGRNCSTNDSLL

SMILES | EC50 [1] [nM] | EC50 [4] [nM] | also measured
O[C@@H](CNCC1CCN(c2ncccc2C(F)(F)F)CC1)COc1cccc2[nH]c3ccccc3c12 |  |  | EC50 [2]: Not Active; EC50 [3]: Not Active
CCCCCCCCNC(=O)Nc1ccc(S(=O)(=O)N2CCC(CNC[C@H](O)COc3ccc(O)cc3)CC2)cc1 | 887 |  | IC50 [5]: 4 nM; IC50 [6]: 27 nM; Thermogenesis (Mus musculus): 30
O=C(Nc1ccccc1)Nc1ccc(S(=O)(=O)N2CCC(CNC[C@H](O)COc3ccc(O)cc3)CC2)cc1 | 489 |  | 
CS(=O)(=O)Nc1cc(OC[C@@H](O)CNCC2CCN(S(=O)(=O)c3ccc(NC(=O)NCc4cc(F)ccc4F)cc3)CC2)ccc1O | 353 | 454 | IC50 [7]: 268 nM; IC50 [6]: 6160 nM; Intrinsic activity [8]: 0.49; Thermogenesis (Mus musculus): 18
O[C@@H](CNCC1CCN(CCC(F)(F)F)CC1)COc1cccc2[nH]c3ccccc3c12 | 417 | > 1000 | 
CCCCCCN1CCC(CNC[C@H](O)COc2cccc3[nH]c4ccccc4c23)CC1 | > 1000 | > 1000 | 
O=C(O)c1cccc(NC(=O)N2CCC(CNC[C@H](O)COc3cccc4[nH]c5ccccc5c34)CC2)c1 |  |  | EC50 [9]: > 1000 nM; Intrinsic activity [10]: 0.29; EC50 [11]: > 1000 nM; Intrinsic activity [8]: 0.05; EC50 [12]: 70 nM
CCCCCCCCNC(=O)Nc1ccc(S(=O)(=O)N2CCC(CNC[C@H](O)COc3ccc(O)c4c3CCC(=O)N4)CC2)cc1 | 390 | 680 | Intrinsic activity [8]: 0.63

Continued, in another order:

EC50 [1] [nM] | EC50 [4] [nM] | SMILES | also measured
1020 |  | O=C(Nc1ccc(S(=O)(=O)N2CCC(CNC[C@H](O)COc3ccc(O)cc3)CC2)cc1)NC1CCCCC1 | 
525 |  | O=C(NCc1cc(F)ccc1F)Nc1ccc(S(=O)(=O)N2CCC(CNC[C@H](O)COc3ccc(O)c(F)c3)CC2)cc1 | 
> 1000 | > 1000 | CCCCCCNC(=O)Nc1ccc(S(=O)(=O)N2CCC(CNC[C@H](O)COc3cccc4[nH]c5ccccc5c34)CC2)cc1 | 
10900 |  | CCCCCCNC(=O)Nc1ccc(S(=O)(=O)N2CCC(CNC[C@H](O)COc3ccc(O)cc3)CC2)cc1 | 
1010 |  | O=C(NCc1cc(F)ccc1F)Nc1ccc(S(=O)(=O)N2CCC(CNC[C@H](O)COc3ccc(O)cc3)CC2)cc1 | 
2050 |  | O=C(NCCCc1cccs1)Nc1ccc(S(=O)(=O)N2CCC(CNC[C@H](O)COc3ccc(O)cc3)CC2)cc1 | 
